According to PubChem BioAssay (NCI):
Where “and” joins values, the source holds several entries; their conditions need not be identical. Equal values may be shown once.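 Each compound was tested at five concentrations against cells in 96-well plates for 48 hours. TGI is the concentration that stops growth completely.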

Experiments:
Assay in all cases: NCI-60 cell line screen, 48 h
[1] = system: TK-10 renal
[2] = system: HCC-2998 colon
[3] = system: UACC-257 melanoma
[4] = system: SK-MEL-28 melanoma
[5] = system: MDA-MB-231 breast
[6] = system: MOLT-4 leukemia
[7] = system: T-47D breast
[8] = system: SN12C renal
[9] = system: SNB-19 CNS
[10] = system: HS 578T breast
[11] = system: MCF7 breast
[12] = system: A498 renal
[13] = system: OVCAR-8 ovarian
[14] = system: NCI-H226 lung
[15] = system: SF-539 CNS
[16] = system: OVCAR-3 ovarian
[17] = system: SW-620 colon
[18] = system: SF-295 CNS
[19] = system: K-562 leukemia
[20] = system: HOP-92 NSCLC
[21] = system: DU-145 prostate
[22] = system: SF-268 CNS
[23] = system: PC-3 prostate
[24] = system: HT29 colon
[25] = system: HL-60(TB) leukemia
[26] = system: 786-0 renal
[27] = system: NCI-H23 lung
[28] = system: LOX IMVI melanoma
[29] = system: A549 NSCLC
[30] = system: ACHN renal
[31] = system: IGROV1 ovarian
[32] = system: SK-MEL-2 melanoma
[33] = system: SK-MEL-5 melanoma
[34] = system: HCT-15 colon
[35] = system: RXF 393 renal
[36] = system: MDA-N
[37] = system: KM12 colon
[38] = system: EKVX NSCLC
[39] = system: M14 melanoma
[40] = system: OVCAR-4 ovarian
[41] = system: HCT-116 colon
[42] = system: NCI-H522 lung
[43] = system: NCI-H460 lung
[44] = system: U251 CNS
[45] = system: CAKI-1 renal
[46] = system: CCRF-CEM leukemia
[47] = system: OVCAR-5 ovarian
[48] = system: UACC-62 melanoma
[49] = system: COLO 205 colon
[50] = system: HOP-62 NSCLC
[51] = system: RPMI-8226 leukemia
[52] = system: MDA-MB-435
[53] = system: NCI/ADR-RES ovarian
[54] = system: SK-OV-3 ovarian
[55] = system: SR leukemia
[56] = system: BT-549 breast
[57] = system: UO-31 renal
[58] = system: SNB-75 CNS
[59] = system: DLD-1 colon
[60] = system: DMS 114 small cell lung
[61] = system: M19-MEL melanoma
[62] = system: SNB-78 CNS
[63] = system: MALME-3M melanoma
[64] = system: DMS 273 small cell lung
[65] = system: LXFL 529 NSCLC
[66] = system: HOP-18 NSCLC

O=C(OCc1ccccc1)N1c2cc([N+](=O)[O-])ccc2C(=O)N2CCC[C@H]2C1O (some centres undefined)
TGI [1]: > 100000 nM | TGI [2]: > 100000 nM | TGI [3]: > 100000 nM | TGI [4]: > 100000 nM | TGI [5]: > 100000 nM | TGI [6]: > 100000 nM | TGI [7]: > 100000 nM | TGI [8]: > 100000 nM | TGI [9]: > 100000 nM | TGI [10]: > 100000 nM | TGI [11]: > 100000 nM | TGI [12]: > 100000 nM | TGI [13]: > 100000 nM | TGI [14]: > 100000 nM | TGI [15]: > 100000 nM | TGI [16]: > 100000 nM | TGI [17]: > 100000 nM | TGI [18]: > 100000 nM | TGI [19]: > 100000 nM | TGI [20]: > 100000 nM | TGI [21]: > 100000 nM | TGI [22]: > 100000 nM | TGI [23]: > 100000 nM | TGI [24]: > 100000 nM | TGI [25]: > 100000 nM | TGI [26]: > 100000 nM | TGI [27]: > 100000 nM | TGI [28]: > 100000 nM | TGI [29]: > 100000 nM | TGI [30]: > 100000 nM | TGI [31]: > 100000 nM | TGI [32]: > 100000 nM | TGI [33]: > 100000 nM | TGI [34]: > 100000 nM | TGI [35]: > 100000 nM | TGI [36]: > 100000 nM | TGI [37]: > 100000 nM | TGI [38]: > 100000 nM | TGI [39]: > 100000 nM | TGI [40]: > 100000 nM | TGI [41]: > 100000 nM | TGI [42]: > 100000 nM | TGI [43]: > 100000 nM | TGI [44]: > 100000 nM | TGI [45]: > 100000 nM | TGI [46]: > 100000 nM | TGI [47]: > 100000 nM | TGI [48]: > 100000 nM | TGI [49]: > 100000 nM | TGI [50]: > 100000 nM | TGI [51]: > 100000 nM | TGI [52]: > 100000 nM | TGI [53]: > 100000 nM | TGI [54]: > 100000 nM | TGI [55]: > 100000 nM | TGI [56]: > 100000 nM | TGI [57]: > 100000 nM | TGI [58]: > 100000 nM

COc1ccc(C2=CN3CCC[C@H]3C=C2c2cc(O)c(OC)c(OC)c2)cc1OC
TGI [1]: 153 nM | TGI [2]: 41.2 nM and 43.1 nM | TGI [3]: 89.9 nM | TGI [4]: 101 nM and 10.7 nM | TGI [5]: 150 nM | TGI [6]: 183 nM and 393 nM | TGI [7]: 93.8 nM | TGI [8]: 56.8 nM and 189 nM | TGI [10]: 36 nM | TGI [12]: 26.9 nM and 62 nM | TGI [13]: 51.8 nM and 10.8 nM | TGI [14]: 29.4 nM | TGI [15]: 59.4 nM and 92.7 nM | TGI [16]: 66.9 nM and 27.4 nM | TGI [17]: 57.8 nM and 20.6 nM | TGI [18]: 115 nM | TGI [19]: 244 nM and 173 nM | TGI [59]: 62.7 nM and 11.9 nM | TGI [20]: 29.4 nM | TGI [21]: 254 nM | TGI [22]: 112 nM | TGI [23]: 53.8 nM | TGI [24]: 113 nM and 37.7 nM | TGI [25]: 161 nM and 17.5 nM | TGI [27]: 27.8 nM | TGI [60]: 18.9 nM | TGI [28]: 7.17 nM | TGI [29]: 274 nM and 172 nM | TGI [30]: 95.9 nM | TGI [31]: 300 nM and 85.7 nM | TGI [32]: 16.1 nM | TGI [33]: 15 nM | TGI [35]: 28.8 nM | TGI [36]: 104 nM | TGI [37]: 39.4 nM | TGI [38]: 228 nM and 1820 nM | TGI [39]: 20.4 nM | TGI [40]: 37.4 nM | TGI [41]: 10.8 nM | TGI [42]: 26 nM | TGI [43]: 26.7 nM and 12.7 nM | TGI [61]: 11 nM | TGI [44]: 105 nM and 280 nM | TGI [62]: 39.1 nM | TGI [63]: 33.3 nM | TGI [45]: 52.2 nM | TGI [46]: 235 nM | TGI [64]: 21.6 nM | TGI [47]: 127 nM | TGI [48]: 33.6 nM | TGI [49]: 25.6 nM | TGI [50]: 122 nM and 148 nM | TGI [51]: 80.6 nM and 202 nM | TGI [65]: 78 nM and 376 nM | TGI [52]: 16.5 nM | TGI [66]: 50.4 nM | TGI [54]: 221 nM | TGI [55]: 51.8 nM | TGI [56]: 331 nM | TGI [57]: 90.5 nM and 23.3 nM | TGI [58]: 9.47 nM
